Test results: patent US20210113456A1, “PHARMACEUTICAL COMPOSITIONS OF RAMELTEON AND METHODS OF USE THEREOF” (MAXINASE LIFE SCIENCES LIMITED, priority 2017, published 2021)

Key:
hepatic tumors = conditions: high concentration; chronic toxicology study; cited from earlier work
MT2 receptors = molecular target: T1, MT2 receptors (Homo sapiens, UniProt P49286); conditions: relative to parent drug; cited from earlier work
T1 sequence (P49286 1-362): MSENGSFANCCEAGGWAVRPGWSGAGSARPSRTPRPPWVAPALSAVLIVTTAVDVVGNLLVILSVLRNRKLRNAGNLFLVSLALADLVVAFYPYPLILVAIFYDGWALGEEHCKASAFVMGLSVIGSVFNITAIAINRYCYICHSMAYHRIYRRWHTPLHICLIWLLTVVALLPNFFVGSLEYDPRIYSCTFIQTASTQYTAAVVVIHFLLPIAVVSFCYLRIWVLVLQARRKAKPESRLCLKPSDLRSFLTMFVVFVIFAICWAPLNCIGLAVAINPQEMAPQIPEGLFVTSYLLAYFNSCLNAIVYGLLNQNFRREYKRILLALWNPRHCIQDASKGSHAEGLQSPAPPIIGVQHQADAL

MT1 receptors = MT1 receptors (Homo sapiens, UniProt P48039); conditions: relative to parent drug; cited from earlier work
Sequence of MT1 receptors (P48039 whole entry): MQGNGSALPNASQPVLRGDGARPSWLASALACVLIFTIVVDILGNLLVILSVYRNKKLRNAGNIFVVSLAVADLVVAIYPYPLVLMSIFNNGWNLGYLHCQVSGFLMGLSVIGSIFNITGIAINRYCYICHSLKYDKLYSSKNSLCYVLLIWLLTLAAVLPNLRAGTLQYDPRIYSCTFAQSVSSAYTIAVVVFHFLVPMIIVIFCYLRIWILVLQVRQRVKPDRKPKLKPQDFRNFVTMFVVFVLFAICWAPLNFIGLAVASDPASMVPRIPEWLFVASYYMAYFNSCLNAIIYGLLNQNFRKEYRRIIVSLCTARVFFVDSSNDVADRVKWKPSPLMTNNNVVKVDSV

[1] = tested on: other CNS receptors associated with sedation (e.g., GABA, dopamine, opiate, serotonin); conditions: cited from earlier work
Caco-2 monolayer = assay: Permeability through Caco-2 monolayer; format: in vitro ADME; conditions: in vitro
[2] = Pharmacokinetics of ramelteon after nasal and oral administration; parameters: species or system SD rats; conditions: Sprague-Dawley (SD), rat, in vivo
Method: The objective was to study the pharmacokinetics of Ramelteon by determining the plasma concentrations after oral and intranasal administration. SD rats (n=3-4 for each dose) received an intranasal dose (0.1 mg/animal) of nasal solution composition (RNS-01, 2.5 mg/mL) which was prepared according to the EXAMPLE 1 of this invention, and an oral dose (0.1 mg/animal) of […] oral solution (ROS-01) which was prepared by directly dissolving ramelteon into saline solution to the final concentration of 0.1 mg/mL. Multiple blood samples were collected from tail vein until 6 hrs. Ramelteon concentration in rat plasma was determined using a validated LC/MS/MS method. The standard non-compartmental method was used to generate the pharmacokinetic parameters.

[3] = cited from earlier work

permeability through Caco-2 monolayer (Caco-2 monolayer)	improvement of bioavailability, intranasal versus oral solution of same dose [2]	Structure (SMILES)	incidence of hepatic tumors (hepatic tumors)	binding affinity for MT2 receptor relative to ramelteon (MT2 receptors)	binding affinity for MT1 receptor relative to ramelteon (MT1 receptors)	affinity for other CNS receptors [1]	increase of systemic exposure (AUC) after co-administration of fluvoxamine ([3]; fluvoxamine, a strong CYP1A2 inhibitor)	inter-subject variability ([3]; oral ramelteon)
		CC(O)C(=O)NCCC1CCc2ccc3c(c21)CCO3 (centres unmarked) [M-II]	increase the incidence of hepatic tumors	one-fifth	about one-tenth			
high permeability	over 20 fold	CCC(=O)NCC[C@@H]1CCc2ccc3c(c21)CCO3 [ramelteon]				no affinity	approximately 190 fold	up to 100%
